Where two headings read alike, the source gives them in different places.
What was measured:
[1] = biological target: T1, Tau K18 aggregates (Tau K18 fragment, amino acids 244 to 372 of human Tau441) (Homo sapiens, UniProt P10636); assay: Tau K18 disaggregation assay by ThT; assay type: biochemical; settings: 2 μM K18 aggregates, 160 to 0.04 μM compound, 30 min RT, ThT fluorescence
T1 construct: encompassing amino acids 244 to 372 of the longest isoform (2N4R) of human Tau441; host or cells: bacteria
Protocol: Tau K18 Disaggregation Assay by ThT
The Tau K18 fragment, encompassing amino acids 244 to 372 of the longest isoform (2N4R) of human Tau441, was expressed in bacteria and purified or bought from SignalChem. For the K18 disaggregation assay by ThT, 35 μM of recombinant K18 in PBS were aggregated for 24 hours at 37° C. in presence of 50 μM of heparin (Sigma-Aldrich) and 10 mM of DTT (Sigma-Aldrich) under shaking at 750 RPM. Compounds were dissolved in anhydrous dimethyl sulfoxide (DMSO, Sigma-Aldrich) to reach a concentration of 10 mM. K18 aggregates and serial dilutions of compounds were mixed together in PBS (volume 50 μL) to a final concentration of 2 μM of K18 aggregates and from 160 to 0.04 μM of compounds. The mixture was incubated for 30 minutes at room temperature (RT), then 40 μL of this mixture were transferred into a black 384-well plate assay (Perkin-Elmer) and mixed with 10 μL of 100 μM ThT in 250 mM glycine (both from Sigma-Aldrich) in PBS. Fluorescence (relative fluorescence units; RFU) was measured in monoplicate or duplicate on a Tecan reader (excitation: 440 nm; emission: 485 nm). Percentage of K18 disaggregation was then calculated and half maximal effective concentration (EC50) was determined using GraphPad Prism version 5 (GraphPad Software) assuming a one-binding site fitting model.

[2] = CSF/Plasma ratio determination, in-vivo pharmacokinetics mouse p.o.; parameters: species or system CD-1 male mice; settings: for CSF/plasma AUC ratio / AUC(0-t): male, CD-1, po; for AUC(0-t): plasma, read-out: Plasma AUC0-last
Protocol: CSF/Plasma Ratio Determination
Test compounds were administered to CD-1 male mice as a single oral dose of 10 or 20 mg/kg of a homogenous suspension (10 mL/kg, 1 or 2 mg/mL in 0.5% CMC (w/v) in water) by gavage using a plastic syringe fitted with a metal gavage tube. Terminal blood, brain and CSF samples were collected from three animals at several time points, typically at 2, 4, 8 and 24 h post-dose.
Blood samples were transferred into 1.5-mL plastic tubes containing K2-EDTA (0.5M, 3 uL) as an anti-coagulant and placed on wet ice, and were then processed to obtain plasma by centrifugation at approximately 5° C. (3000 g, 15 min) within 30 min after collection. An aliquot of 10 μL sample was protein precipitated with 150 μL IS, the mixture was vortex-mixed well and centrifuged at 13000 rpm for 10 min, 4° C. 30 μL supernatant was then mixed with 30 μL water, vortex-mixed well and centrifuged at 4° C. 2 μL sample was injected for LC-MS/MS analysis.
The collected CSF was transferred to polypropylene microcentrifuge tubes. CSF samples were added with an equal volume of plasma. An aliquot of 6 μL sample was protein precipitated with 90 μL IS, the mixture was vortex-mixed well and centrifuged at 13000 rpm for 10 min, 4° C. 30 μL supernatant was then mixed with 30 μL water, vortex-mixed well and centrifuged at 4° C. 2 μL sample was injected for LC-MS/MS analysis.
Test substance concentration in plasma and CSF versus time data were analyzed by non-compartmental approaches; AUC0-last in plasma and CSF were calculated with the log-linear trapezoidal rule. CSF/Plasma ratio was calculated as follows:
AUC0-last(CSF)/AUC0-last(plasma)

[3] = biological target: T2, full-length Tau (flTau, 2N4R) aggregates (Homo sapiens, UniProt P10636); assay: Tau disaggregation assay by DLS (dynamic light scattering); assay type: biochemical; settings: 2 μM flTau aggregates, 20 μM compound, 60 min RT
T2 construct: 35 μM of recombinant full-length (fl)Tau in PBS were aggregated; made in house; host or cells: bacteria
Protocol: Tau disaggregation assay by DLS (dynamic light scattering)
The longest isoform of human Tau (2N4R; 441 amino acids) was expressed in bacteria. For the Tau disaggregation assay by DLS, 35 μM of recombinant full-length (fl)Tau in PBS were aggregated for 24 h at 37° C. in presence of 50 μM of heparin (Sigma-Aldrich) and 10 mM of DTT (Sigma-Aldrich) under shaking at 750 RPM. Morphomers™ were dissolved in DMSO (Sigma-Aldrich) to reach a concentration of 10 mM. flTau aggregates and compounds were mixed together in PBS (volume 80 μL) to a final concentration of 2 μM of flTau aggregates and 20 μM of Morphomers™. The mixture was incubated for 60 min at RT. Then […] of solution was transferred into a 40 μl cuvette (Malvern) and the size of flTau aggregates was measured with a Zetasizer Nano (Malvern) at an angle of 173° with 3 runs of 5 times 15 sec each. Number of events were taken into consideration to assess size of flTau aggregates. Percentage of disaggregation was then measured using the dynamic range between flTau monomers and flTau aggregates.

[4] = 20 mg/kg, AUC0-last(CSF)/AUC0-last(plasma)

T1 sequence (P10636 561-689): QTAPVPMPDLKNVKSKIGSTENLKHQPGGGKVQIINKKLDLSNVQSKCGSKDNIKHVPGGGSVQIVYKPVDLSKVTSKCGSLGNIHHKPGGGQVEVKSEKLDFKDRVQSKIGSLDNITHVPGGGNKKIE
T2 sequence (P10636 1-441 isoform P10636-8): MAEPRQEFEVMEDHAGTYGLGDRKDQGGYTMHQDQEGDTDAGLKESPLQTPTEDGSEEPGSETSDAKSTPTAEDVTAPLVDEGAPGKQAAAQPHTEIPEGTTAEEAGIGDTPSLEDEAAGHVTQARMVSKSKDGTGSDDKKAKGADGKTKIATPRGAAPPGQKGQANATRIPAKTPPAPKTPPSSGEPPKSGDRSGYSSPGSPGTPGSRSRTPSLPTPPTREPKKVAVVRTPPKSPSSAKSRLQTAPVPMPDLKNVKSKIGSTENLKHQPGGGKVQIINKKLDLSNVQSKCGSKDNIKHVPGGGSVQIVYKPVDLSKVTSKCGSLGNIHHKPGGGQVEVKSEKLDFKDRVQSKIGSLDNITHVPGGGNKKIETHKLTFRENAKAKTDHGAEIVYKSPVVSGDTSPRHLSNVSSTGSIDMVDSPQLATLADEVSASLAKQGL

Fc1ccc2[nH]c3c(c2c1)CN(c1ccc2oc(N4CCOCC4)nc2c1)CC3 [Comparative Example 1]
EC50 [1]: < 10 µM
CSF AUC0-last ([2]; 20 mg/kg): 121.03 ng·h/mL
CSF/plasma AUC ratio [2, 4]: 0.007
AUC(0-t) ([2]; 20 mg/kg): 17400 ng·h/mL

Fc1ccc2c3c([nH]c2c1)CCN(c1ccc2oc(N4CCOCC4)nc2c1)C3 [Comparative Example 2]
EC50 [1]: < 10 µM
CSF AUC0-last ([2]; 20 mg/kg): 56.70 ng·h/mL
CSF/plasma AUC ratio [2, 4]: 0.003
AUC(0-t) ([2]; 20 mg/kg): 17800 ng·h/mL

Fc1cccc2[nH]c3c(c12)CN(c1ccc2oc(N4CCOCC4)nc2c1)CC3 [Comparative Example 3]
EC50 [1]: < 10 µM
CSF AUC0-last ([2]; 10 mg/kg): 19.705 ng·h/mL
CSF/plasma AUC ratio ([2]; 10 mg/kg, AUC0-last(CSF)/AUC0-last(plasma)): 0.004
AUC(0-t) ([2]; 10 mg/kg): 4590 ng·h/mL

Fc1cccc2c3c([nH]c12)CCN(c1ccc2oc(N4CCOCC4)nc2c1)C3 [Comparative Example 4]
EC50 [1]: < 10 µM
CSF AUC0-last ([2]; 20 mg/kg): 66.5 ng·h/mL
CSF/plasma AUC ratio [2, 4]: 0.005
AUC(0-t) ([2]; 20 mg/kg): 14500 ng·h/mL

c1ccc2c3c([nH]c2c1)CCN(c1ccc2oc(N4CCOCC4)nc2c1)C3 [Example 1]
EC50 [1]: < 10 µM
DLS % Percentage of disaggregation (flTau) [3]: 25%
CSF/Plasma ratio [2, 4]: highest CSF/plasma ratio
CSF AUC0-last ([2]; 20 mg/kg): 327.0 ng·h/mL
CSF/plasma AUC ratio [2, 4]: 0.014
AUC(0-t) ([2]; 20 mg/kg): 23700 ng·h/mL

c1ccc2c3c([nH]c2c1)CCN(c1ccc2oc(N4CCOCC4)nc2n1)C3 [Example 5]
EC50 [1]: < 10 µM
